# Results as given in EP2921486B1, “Compositions and methods for treating beta-amyloid related diseases” (American Life Science Pharmaceuticals, Inc., priority 2009, dated 2011).
# Read-outs that look alike come from different tables or passages of the source.
# Columns and labels:
# Aβ(40) and Aβ(42) = assay: Brain, CSF and plasma Aβ ELISA after once-a-day oral gavage for one week (Example 9); assay type: in vivo; conditions: guinea pigs
# Excerpt: (§1) Guinea Pigs. Guinea Pigs (Harley strain, average weight 400 g corresponding to animals about 6 weeks old) were obtained from Charles River (Wilmington, MA). The animals were given free access to standard chow and water before and during the experiment.
# (§2) Gavage Formulation: Delivering a drug by gavage offers the advantage of accurate dosing but is traumatic and thus only suitable for relatively short dosing periods. Gavage delivery was used for the guinea pig work. E64d was resuspended in DMSO at indicated concentrations (see Figures, and below) and guinea pigs were gavaged daily using a feeding tube. Vehicle control animals were provided DMSO alone.
# (§3) Guinea Pig Gavage Dosing: Guinea pigs were gavaged daily for one week. Guinea pigs were lightly anesthetized with isoflurane prior to gavaging. 250 µl of compound solution was gavaged daily per animal and animals were sacrificed 4 hrs after the last dosing.
# brain cathepsin B = assay: Brain cathepsin B activity after once-a-day oral gavage (fluorometric kit); assay type: in vivo; conditions: guinea pigs, once-a-day oral administration
# Excerpt: as §1, §2, §3
# The brain cathepsin B activity in guinea pigs was measured as follows: Cathepsin B activity was determined using a fluorometric assay kit from Abeam, Inc. (catalog ab65300; Cambridge, MA) as described by the manufacturer.
# brain BACE1 = assay: Brain BACE1 activity after once-a-day oral gavage (fluorometric kit); assay type: in vivo; conditions: guinea pigs, once-a-day oral administration
# Excerpt: as §1, §2, §3
# The brain BRACE1 activity in guinea pigs was measured by Beta secretase activity was determined using a fluorometric assay kit from Abcam (ab65357) as described by the manufacturer.
# transgenic APPlon mice = assay: Morris water maze test, spatial memory deficit; assay type: in vivo; conditions: E64d-doped chow for 1 month or 3 months, either age group
# Excerpt: Figure 16 is not descriptive of the claimed invention. Figure 16 graphically illustrates data showing the effects of AB-007 (E64d, loxistatin)-doped chow on the spatial memory deficit that develops in transgenic APPlon (London APP) mice, see above description, and e.g. Hook, et al. (2008) supra. The Morris water maze test was used to measure the latency period, which is the time it takes an animal to swim to a submerged and not visible platform after having been previously trained as to the location of that platform. The longer the latency period, the poorer the spatial memory. Two groups of animals were evaluated, young and old mice.
# [1] = 5-week stability test at 60°C; assay type: physicochemical; conditions: read-out: compound remaining
# [2] = test system: brain Aβ40 and brain Aβ42; conditions: guinea pig, oral 10 mg/kg/day, 7 days
# brain Aβ(40) and Aβ(42) = conditions: for Summary Aβ 40 Mean % Control / Summary Aβ 42 Mean % Control: 1 & 3 month feeding; for Aβ 40 Difference / Aβ 42 Difference: control minus treated; for Aβ 40 % Control / Aβ 42 % Control: per cent reduction in Aβ
# [3] = cited from earlier work
# [4] = cited from earlier work; remark: listed apart in the source
# [5] = high oral doses (500 mg/kg and 1 g/kg), cited from earlier work
# [6] = maximal intravenous or oral doses, rats; cited from earlier work
# [7] = healthy human volunteers, oral, about 5 mg/kg/day, single or continuous 1 week; cited from earlier work
# [8] = rats, cited from earlier work
# [9] = oral, dogs; cited from earlier work
# [10] = Old mice, 1 month feeding E64d doped chow
# [11] = Old mice, 3 month feeding E64d doped chow
# [12] = Young mice, 1 month feeding E64d doped chow
# [13] = Young mice, 3 month feeding E64d doped chow
smiles,measurement,setting,value
[2H]C([2H])([2H])C([2H])(CCNC(=O)[C@H](CC(C)C)NC(=O)[C@H]1O[C@@H]1C(=O)OCC)C([2H])([2H])[2H] [Compound E64d7],CSF Aβ,Aβ(40) and Aβ(42),dose response reduction
same,CSF Aβ(42),Aβ(40) and Aβ(42),dose response reduction
same,brain Aβ(40),Aβ(40) and Aβ(42),dose response reduction
same,brain Aβ(42),Aβ(40) and Aβ(42),dose response reduction
same,plasma Aβ(40),Aβ(40) and Aβ(42),dose response reduction
same,plasma Aβ(42),Aβ(40) and Aβ(42),dose response reduction
same,brain cathepsin B activity,brain cathepsin B,dose response reduction
same,brain BACE1 activity,brain BACE1,increase
"CCOC(=O)[C@H]1O[C@@H]1C(=O)N[C@@H](CC(C)C)C(=O)NCCC(C)C (relative stereo) [AB-007, (2S,3S)-trans-epoxysuccinyl-L-leucyl-amido-3-methylbutane ethyl ester]",CSF Aβ,Aβ(40) and Aβ(42),dose response reduction
same,CSF Aβ(42),Aβ(40) and Aβ(42),dose response reduction
same,brain Aβ(40),Aβ(40) and Aβ(42),dose response reduction
same,brain Aβ(42),Aβ(40) and Aβ(42),dose response reduction
same,plasma Aβ(40),Aβ(40) and Aβ(42),dose response reduction
same,plasma Aβ(42),Aβ(40) and Aβ(42),dose response reduction
same,brain cathepsin B activity,brain cathepsin B,dose response reduction
same,brain BACE1 activity,brain BACE1,increase
same,mean latency period relative to age-matched controls,transgenic APPlon mice,significantly reduced
same,remaining at 840 h,[1],99%
same,reduction of brain Aβ40 relative to vehicle treated controls,[2],42%
same,reduction of brain Aβ42 relative to vehicle treated controls,[2],42%
same,Summary Aβ 40 Mean % Control,brain Aβ(40) and Aβ(42); All Ages,64%
same,Summary Aβ 42 Mean % Control,brain Aβ(40) and Aβ(42); All Ages,52%
same,Summary Aβ 40 Mean % Control,brain Aβ(40) and Aβ(42); Old mice,65%
same,Summary Aβ 42 Mean % Control,brain Aβ(40) and Aβ(42); Old mice,42%
same,Aβ 40 Mean treated,brain Aβ(40) and Aβ(42); [10],87.1
same,Aβ 42 Mean treated,brain Aβ(40) and Aβ(42); [10],31.9
same,Aβ 40 Difference,"brain Aβ(40) and Aβ(42); Old mice, 1 month feeding",142.9
same,Aβ 42 Difference,"brain Aβ(40) and Aβ(42); Old mice, 1 month feeding",26.6
same,Aβ 40 % Control,"brain Aβ(40) and Aβ(42); Old mice, 1 month feeding",62%
same,Aβ 42 % Control,"brain Aβ(40) and Aβ(42); Old mice, 1 month feeding",45%
same,Aβ 40 Mean treated,brain Aβ(40) and Aβ(42); [11],91.2
same,Aβ 42 Mean treated,brain Aβ(40) and Aβ(42); [11],61.3
same,Aβ 40 Difference,"brain Aβ(40) and Aβ(42); Old mice, 3 month feeding",195.3
same,Aβ 42 Difference,"brain Aβ(40) and Aβ(42); Old mice, 3 month feeding",38.5
same,Aβ 40 % Control,"brain Aβ(40) and Aβ(42); Old mice, 3 month feeding",68%
same,Aβ 42 % Control,"brain Aβ(40) and Aβ(42); Old mice, 3 month feeding",39%
same,Summary Aβ 40 Mean % Control,brain Aβ(40) and Aβ(42); Young mice,60%
same,Summary Aβ 42 Mean % Control,brain Aβ(40) and Aβ(42); Young mice,62%
same,Aβ 40 Mean treated,brain Aβ(40) and Aβ(42); [12],47.7
same,Aβ 42 Mean treated,brain Aβ(40) and Aβ(42); [12],5.5
same,Aβ 40 Difference,"brain Aβ(40) and Aβ(42); Young mice, 1 month feeding",47.5
same,Aβ 42 Difference,"brain Aβ(40) and Aβ(42); Young mice, 1 month feeding",6
same,Aβ 40 % Control,"brain Aβ(40) and Aβ(42); Young mice, 1 month feeding",50%
same,Aβ 42 % Control,"brain Aβ(40) and Aβ(42); Young mice, 1 month feeding",52%
same,Aβ 40 Mean treated,brain Aβ(40) and Aβ(42); [13],38.7
same,Aβ 42 Mean treated,brain Aβ(40) and Aβ(42); [13],4.5
same,Aβ 40 Difference,"brain Aβ(40) and Aβ(42); Young mice, 3 month feeding",87.4
same,Aβ 42 Difference,"brain Aβ(40) and Aβ(42); Young mice, 3 month feeding",11.7
same,Aβ 40 % Control,"brain Aβ(40) and Aβ(42); Young mice, 3 month feeding",69%
same,Aβ 42 % Control,"brain Aβ(40) and Aβ(42); Young mice, 3 month feeding",72%
same,drug accumulation,[3]; humans,No drug accumulation
same,total urinary excretion rate,[3]; humans,about 30%
same,conversion in the gut to E64c (loxistatin acid),[3]; oral,rapidly and completely converted
same,oral dose absorbed,[4]; primary absorption site small intestine,about 60%
same,"concentration in all other organs, including the brain",[4]; radioactive AB-007,corresponding to the plasma concentration or concentrations lower than plasma
same,kidneys concentration relative to plasma concentration,[4]; radioactive AB-007,~12 times
same,liver concentration relative to plasma concentration,[4]; radioactive AB-007,about 25 times
same,time of maximum tissue concentration after administration,[4]; radioactive AB-007,0.5 h
same,effect on the cardiovascular system,[5],no effect
same,effect on the central nervous system,"[5]; sedation, mild inhibition of pentetrazol-induced seizure",depress the central nervous system
same,influence on vision or hearing,[6],do not influence
same,"hematological tests, blood chemistry, urinalyses",[7],no changes
same,"pulse, blood pressure, body temperature, grip force, electrocardiogram, physician observations",[7],no change
same,LD50,[8]; oral,"over 10,000 mg/kg"
same,hepatic injury,[8]; does not occur in other species,hepatic injury seen in rats
same,LD50,[9],"> 5,000 mg/kg"
